pIC50: −log10 of the molar value.
Legend:
human IRAK4 = biological target: T1, human IRAK4 (Homo sapiens, UniProt Q9NWZ3); experiment: IRAK4 MSA (Mobility-Shift Assay) at Km ATP; assay type: biochemical; conditions: GST-IRAK4 1 nM, ATP 37 μM (Km); read-out: IC50 for inhibiting human IRAK4 kinase
T1 construct: purchased Cama (so in the source)
T1 sequence (Q9NWZ3 1-460): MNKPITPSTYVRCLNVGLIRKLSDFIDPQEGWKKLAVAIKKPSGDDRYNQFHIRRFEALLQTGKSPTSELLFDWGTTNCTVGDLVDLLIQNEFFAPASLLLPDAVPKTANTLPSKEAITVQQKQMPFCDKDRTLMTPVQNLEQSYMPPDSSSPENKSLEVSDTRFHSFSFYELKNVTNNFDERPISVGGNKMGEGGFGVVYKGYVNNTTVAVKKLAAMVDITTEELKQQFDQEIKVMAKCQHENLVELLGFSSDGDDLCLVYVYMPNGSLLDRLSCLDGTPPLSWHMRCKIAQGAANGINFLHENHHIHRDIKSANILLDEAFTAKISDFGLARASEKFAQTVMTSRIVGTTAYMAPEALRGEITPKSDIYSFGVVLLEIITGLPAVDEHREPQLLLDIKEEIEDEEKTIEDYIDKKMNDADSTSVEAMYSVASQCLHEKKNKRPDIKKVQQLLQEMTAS
Description: A recombinant fusion protein of N-terminal GST (glutathione-S-transferase) and human IRAK4 was used as enzyme (GST-IRAK4, kinase IRAK4 (Cama)) at a final concentration of 1 nM; ATP (Sigma) was at a final concentration of 37 μM; the substrates used for the kinase reaction were a 5-FAM (5-carboxyfluorescein)-labeled polypeptide (5-FAM-[…]-COOH) and a substrate peptide FAM-P8 (GL Biochem) at final concentrations of […].
In this assay, 500 μM solutions of the compounds were prepared in 100% DMSO, and serially 4-fold diluted to the 10th concentration gradient with 100% DMSO, followed by a 10-fold dilution in the compound buffer (50 mM HEPES. pH 7.5, 0.00015% Brij-35) to give intermediate dilutions of the compounds at a final concentration of 10 μM-0.04 nM containing 10% DMSO respectively, 5 μL of the dilutions were transferred into a black 384-well plate respectively.
IRAK4 was diluted to 2.5 nM in the kinase buffer (50 mM HEPES, pH 7.5, 0.00015% Brij-35, 2 mM DTT). 10 μL of the IRAK4 dilution was transferred to the 384-well plate and co-incubated with the compound for 10-15 min.
The substrate and ATP were diluted to 12.5 μM and 92.5 μM with reaction buffer (50 mM HEPES, pH 7.5, 0.00015% Brij-35, 10 mM MgCl2), respectively. 10 μL of the dilutions were transferred to a 384-well plate and incubated at 28° C. for 1 h respectively. The reaction was terminated by adding 25 μL of 50 mM EDTA to the 384-well plate.
The inhibition rates of IRAK4 by the compounds were calculated by measuring the rate of phosphorylated substrate using a Caliper EZ Reader (PerkinElmer) and the IC50 values were calculated by XL-fit software.

[1] = test system: TNF-α release in LPS-induced Balb/c female mice; experiment: Inhibition of TNF-α release in LPS-induced Balb/c female mice; assay type: in vivo, mouse; design: concentration or dose not given beside the values; conditions: oral gavage 5 h before LPS induction, serum 1.5 h after stimulation
Description: In the normal control groups, the animals received an intraperitoneal injection of normal saline (10 mL/kg) and in the model groups, the animals received LPS stimulation (Sigma CAT #L2630, i.p., 10 mL/kg, 0.2 mg/kg). During the assay, to the test compounds, DMSO, Solutol and 10 mM PBS were sequentially added to prepare a solution or suspension of required concentration for administration. For the vehicle, DMSO, Solutol and 10 mM PBS were mixed in a volume ratio of 5:15:80. In each of the groups, the animals were administered through oral gavage (10 mL/kg) 5 h before LPS (or saline) stimulation at predetermined doses, and euthanized with CO2 at 1.5 h after the stimulation for cardiac blood collection. The whole blood was not anticoagulated, incubated in wet ice for 1.5 h, and centrifuged at 2000×g at 4° C. for 10 min to separate the serum. The serum was frozen at −80° C. for TNF-α assay. Quantification of the TNF-α was done with TNF-α ELISA kit according to the manufacturer's instruction.

[2] = test system: IL-6 release in LPS-induced Balb/c female mice; experiment: Inhibition of IL-6 release in LPS-induced Balb/c female mice; assay type: in vivo, mouse; design: concentration or dose not given beside the values; conditions: administered 5 h before LPS induction, serum
Description: Objective of the test: To determine the inhibitory effect of the compounds by measuring the plasma IL-6 concentration in a Balb/c mouse model with LPS-induced inflammation.
2.1 Prepared mouse serum samples (sample batch no. 20181218)
4.1 Reagent kit was equilibrated at room temperature (25-28° C.) for 20 min. After each detection, the remaining reagents were stored at 4° C.
4.3 Preparing reference standard: 1 vial of reference standard substance was added with labeled volume of reference standard diluent. The mixtures were incubated for 15 min at room temperature. Then the mixtures were gently mixed to completely dissolve the substance to prepare a reference standard stock at a final concentration of 1000 μg/mL.
4.4 Dilution of samples: The sample in each group was diluted by […], i.e., a 2-fold dilution with sample assay buffer followed by another two-fold dilution with standard diluent.
4.5 The diluted samples or standards of different concentrations were added into corresponding wells at 100 μL/well respectively, and a background correcting well (or a blank well) was set by adding only TMB buffer and terminating solution. The wells were sealed with a transparent film and incubated at room temperature for 120 min.
4.6 The plate was subjected to 5 washes, each with 300 μL of washing buffer for 15-30 sec. The plate was dried on thick absorbent paper after the last wash.
4.7 Biotinylated antibody was added at 100 μL/well (Note: the biotinylated antibody was prepared in advance and could be used directly without further dilution). The wells were sealed with a transparent film and incubated at room temperature for 60 min.
4.8 The plate was subjected to 5 washes, each with 300 μL of washing buffer for 15-30 sec. The plate was dried on thick absorbent paper after the last wash.
4.9 Horseradish peroxidase-labeled streptavidin was added at 100 μL/well. The wells were sealed with a white film and incubated away from light at room temperature for 20 min.
4.10 The plate was subjected to 5 washes, each with 300 μL of washing buffer for 15-30 sec. The plate was dried on thick absorbent paper after the last wash.
4.11 The chromogenic reagent TMB was added 100 μL/well. The wells were sealed with a white film and incubated away from light at room temperature for 20 min.
4.12 The terminating solution was added at 50 μL/well and A450 value was measured right after mixing.

[3] = Stability in human liver microsomes; assay type: in vitro ADME; conditions: ∞ = no obvious metabolism found during assay
Description: (§1) 1. Preparation of buffer C:
(§2) Buffer A: 1.0 L of 0.1 M monopotassium phosphate buffer (containing 1.0 mM EDTA);
(§3) Buffer A: 1.0 L of 0.1 M dipotassium phosphate buffer (containing 1.0 mM EDTA);
(§4) Buffer C: Buffer A was added to 700 mL of buffer B until pH reached 7.4.
(§5) The test compound and the reference were separately dissolved in DMSO to give 10 mM stocks.
(§6) 500 μM solution: 10 μL of 10 mM stock solution was added to 190 μL of acetonitrile;
(§7) 1.5 μM dosing solution (in liver microsome solution):
(§8) 18.75 μL of 20 mg/mL liver microsomes were added to 479.75 μL of buffer C, followed by 1.5 μL of 500 μM solution. The mixture was gently shaken to mix well.
(§9) NADPH was weighed, to which an appropriate amount of buffer C was added to prepare a 6 mM NADPH solution.
(§10) 5. 30 μL of 1.5 μM dosing solution was added to wells of a 96-well plate set for different time points (0 min, 5 min, 15 min, 30 min, 45 min) in duplicate.
(§11) 6. Preparation of 0 min samples: 135 μL of acetonitrile (containing internal standard) was added to the 0 min wells, followed by 15 μL of 6 mM NADPH solution.
(§12) 7. The 96-well plate containing 1.5 μM dosing solution and NADPH solution were preheated for 5 min in a water bath at 37° C.
(§13) 8. 15 μL of pre-heated 6 mM NADPH solution was added to wells set for 5 min, 15 min, 30 min and 45 min to start the reaction.
(§14) 9. At time points of 5 min, 15 min, 30 min and 45 min, the reaction was terminated by adding 135 μL of acetonitrile (containing internal standard). The mixtures were vortexed for 10 min and centrifuged at 5594×g for 15 min (Thermo Multifuge×3R).
(§15) 10. 50 μL of the supernatant was transferred to wells of a 96-well plate containing 50 μL of water. The samples were mixed and finally subjected to LC-MS/MS analysis.

[4] = Stability in rat liver microsomes; assay type: in vitro ADME; conditions: pH 7.4, ∞ = no obvious metabolism found during assay, read-out: Stability test in liver microsomes t1/2, Rat
Description: as §1, §2, §3, §4, §5, §6, §7, §8, §9, §10, §11, §12, §13, §14, §15

[5] = Stability in mouse liver microsomes; assay type: in vitro ADME; conditions: ∞ = no obvious metabolism found during assay
Description: as §1, §2, §3, §4, §5, §6, §7, §8, §9, §10, §11, §12, §13, §14, §15

pIC50 (human IRAK4)	Stability test in liver microsomes t1/2, Human [3]	half-life at 1 μM [4]	Stability test in liver microsomes t1/2, Mouse [5]	Structure (SMILES)	Inhibition rate of TNF-α [1]	Inhibition rate of IL-6 [2]
8.44	–	–	–	COc1cc2nn([C@H]3C[C@H](C(C)(C)O)C3)cc2cc1NC(=O)c1cnn2cccnc12 [MY-004-075]	90.15%	96.88%
8.70	–	–	–	COc1cc2nn([C@H]3C[C@H](C(C)(C)O)C3)cc2cc1NC(=O)c1cccc(C(F)F)n1 [MY-004-115]	89.59%	93.35%
8.36	∞	11.4 h	∞	CC(C)(O)[C@H]1C[C@H](n2cc3cc(NC(=O)c4cccc(C(F)(F)F)n4)c(-n4cccn4)cc3n2)C1 [MY-004-144]	–	–
